System: Bacillus subtilis ITB 105 strain (NITE BP-01727)
Assay: Three-stage liquid culture with streptomycin added; colony count (CFU) and abnormal colony morphology on agar
Format: cell-based
Conditions: for Appearance (%) of abnormal colonies / CFU / Number of abnormal colonies / Number of normal colonies: third stage, 30 hour
Description: Using a 500 mL Erlenmeyer flask (with a baffle), 100 mL each of liquid medium containing the components of the medium listed in Table 1 was prepared, and then autoclave sterilization was performed. In order to avoid the Maillard reaction, glucose was separately sterilized and mixed aseptically.
The test sections were set as described in Table 2. According to the conditions for each test section, an aqueous solution of filter-sterilized streptomycin was aseptically added to the medium.
One platinum loop was taken from a colony of Bacillus subtilis ITB 105 strain (NITE BP-01727) grown on a common agar medium and inoculated, and then shake culture was performed at 30° C. and 150 rpm (first stage). Eighteen hours later, 1 mL of each culture solution was aliquoted and transferred to a fresh medium, and then shaking culture was performed in the same manner (second stage). After 24 hours, 1 mL of each culture solution was aliquoted and then transferred to a fresh medium, and then shaking culture was performed in the same manner (third stage). The third-stage culture solution was sampled after 30 hours.
The resulting culture solutions were each diluted 1×10^7 folds with sterile water, and 100 μL of the diluted solution was applied to a common agar medium and then cells were cultured overnight at 37° C. The number of colonies that had appeared was determined to calculate CFU. Colonies that had appeared and clearly differed in colony morphology compared with the parent strain on the basis of the criteria in Table 3 were determined as abnormal colonies and the number of the abnormal appearing colonies was determined and then the proportion thereof in the total number of colonies was calculated. As a result, in the three-stage culture, abnormal appearing colonies accounted for about 5% when no antibiotic was added.

[1] = Test section No. 2: streptomycin 5 ppm in first and second stage, none in third
[2] = Test section No. 3: streptomycin 10 ppm in first and second stage, none in third
[3] = Test section No. 4: streptomycin 15 ppm in first and second stage, none in third
[4] = Test section No. 5: streptomycin 20 ppm in first and second stage, none in third
[5] = Test section No. 6: streptomycin 30 ppm in first and second stage, none in third
[6] = Test section No. 7: streptomycin 30 ppm in first, second and third stage
[7] = streptomycin added in all of the first, second and third stages

SMILES: [H]/N=C(/N)N[C@H]1[C@H](O)[C@@H](O)[C@H](O[C@@H]2O[C@@H](C)[C@](O)(C=O)[C@H]2O[C@@H]2O[C@@H](CO)[C@H](O)[C@@H](O)[C@@H]2NC)[C@@H](N/C(N)=N\[H])[C@@H]1O [Streptomycin, streptomycin]
- Appearance (%) of abnormal colonies [1]: 0.0%
- CFU [1]: 8.8e+09 mL⁻¹
- Number of abnormal colonies [1]: 0
- Number of normal colonies [1]: 88
- Appearance (%) of abnormal colonies [2]: 0.0%
- CFU [2]: 1.09e+10 mL⁻¹
- Number of abnormal colonies [2]: 0
- Number of normal colonies [2]: 109
- Appearance (%) of abnormal colonies [3]: 0.0%
- CFU [3]: 7e+09 mL⁻¹
- Number of abnormal colonies [3]: 0
- Number of normal colonies [3]: 70
- Appearance (%) of abnormal colonies [4]: 0.0%
- CFU [4]: 8.2e+09 mL⁻¹
- Number of abnormal colonies [4]: 0
- Number of normal colonies [4]: 82
- Appearance (%) of abnormal colonies [5]: 0.0%
- CFU [5]: 6.3e+09 mL⁻¹
- Number of abnormal colonies [5]: 0
- Number of normal colonies [5]: 63
- Appearance (%) of abnormal colonies [6]: 0.0%
- CFU [6]: 4.9e+09 mL⁻¹
- Number of abnormal colonies [6]: 0
- Number of normal colonies [6]: 49
- Appearance of abnormal colonies [7]: no abnormal colony appeared
- Number of appearing colonies and number of normal appearing colonies [7]: low
- Productivity of bacterial cells (streptomycin added in all of the first, second and third stages, compared with Test section Nos. 2 to 6): lower than those of Test section Nos. 2 to 6
- Appearance of abnormal colonies (streptomycin added in the first and second stages, none in the third stage): no appearance of abnormal colonies was observed
